In US20090131422A1, “Salts of an IKK inhibitor” (Millennium Pharmaceuticals, Inc., priority 2007, published 2009):
≈ marks a conversion by molar mass, not a printed value. Structures can show the parent of a compound that is named as a salt.

Assays:
physchem = conditions: water
Experimental: Solubility: The water solubility of the Tartrate and Mono-HCl Salt was measured at ambient temperature.

[1] = Gravimetric vapor sorption (GVS); assay type: physicochemical; conditions: 25° C.
Experimental: Gravimetric Vapor Sorption (GVS): Gravimetric vapor sorption (GVS) data are collected using either i) a SGA-100 Water Vapor Sorption Analyzer from VTI Corporation. Sample sizes are typically 5-10 mg. A moisture adsorption/desorption isotherm is recorded by subjecting samples to a series of relative humidity (RH) steps at a constant temperature of 25° C.; or ii) a Hiden IGASorp moisture sorption analyser running CFRSorp software, IGA Systems Software V3.00.23 and IGASorp Controller Version 1.10. Sample sizes are typically 10 mg. A moisture adsorption/desorption isotherm iserformed in the following way: Samples are loaded/unloaded at typical room humidity and temperature (40% RH, 25° C.) and analysed afterwards by XRPD. The isotherm run is two complete cycles. Each cycle begins at 40% RH and using 10% RH intervals goes to 90% RH then Dry then 40% RH.

C[C@@H]1CN(C(=O)CN2CC(C)(C)OC[C@H]2C(=O)Nc2cc(Cl)cc3c2[nH]c2cnccc23)C[C@H](C)O1 [free base, (S)—N-(6-chloro-9H-pyrido[3,4-b]indol-8-yl)-4-(2-((2S,6R)-2,6-dimethylmorpholino)-2-oxoethyl)-6,6-dimethylmorpholine-3-carboxamide]
solubility (physchem): ~10 µg/mL (≈ 19.5 µM)

C[C@@H]1CN(C(=O)CN2CC(C)(C)OC[C@H]2C(=O)Nc2cc(Cl)cc3c2[nH]c2cnccc23)C[C@H](C)O1 [Mono-Hydrochloride Salt, (S)—N-(6-chloro-9H-pyrido[3,4-b]indol-8-yl)-4-(2-((2S,6R)-2,6-dimethylmorpholino)-2-oxoethyl)-6,6-dimethylmorpholine-3-carboxamide mono-hydrochloride]
moisture uptake at 70% RH ([1]; mono-hydrochloride): 0.23% | moisture uptake at 90% RH ([1]; mono-hydrochloride): 1.7%

C[C@@H]1CN(C(=O)CN2CC(C)(C)OC[C@H]2C(=O)Nc2cc(Cl)cc3c2[nH]c2cnccc23)C[C@H](C)O1 [Tartrate Salt, (S)—N-(6-chloro-9H-pyrido[3,4-b]indol-8-yl)-4-(2-((2S,6R)-2,6-dimethylmorpholino)-2-oxoethyl)-6,6-dimethylmorpholine-3-carboxamide hemi-L-tartrate hydrate]
moisture uptake at 70% RH [1]: 1.3% | moisture uptake at 90% RH [1]: 2.4% | hygroscopicity ([1]; vapor sorption profile): relatively non-hygroscopic

C[C@@H]1CN(C(=O)CN2CC(C)(C)OC[C@H]2C(=O)Nc2cc(Cl)cc3c2[nH]c2cnccc23)C[C@H](C)O1 [Malonate Salt, (S)—N-(6-chloro-9H-pyrido[3,4-b]indol-8-yl)-4-(2-((2S,6R)-2,6-dimethylmorpholino)-2-oxoethyl)-6,6-dimethylmorpholine-3-carboxamide malonate]
moisture uptake from 40-90% RH ([1]; 40-90% RH): 1.5 wt %
